Results as given in patent US11780845B2 (Relay Therapeutics, Inc., priority 2019, dated 2023).

Columns and labels:
FGFR2 = FGFR2 (Homo sapiens (Human), UniProt P21802); test: Biochemical FGFR2 Caliper assay
SNU-16 = test: Cell SNU-16 assay; format: cell-based
[1] = Homo sapiens, SNU-16, SNU-16 cells

FGFR2, sequence (P21802 22-821): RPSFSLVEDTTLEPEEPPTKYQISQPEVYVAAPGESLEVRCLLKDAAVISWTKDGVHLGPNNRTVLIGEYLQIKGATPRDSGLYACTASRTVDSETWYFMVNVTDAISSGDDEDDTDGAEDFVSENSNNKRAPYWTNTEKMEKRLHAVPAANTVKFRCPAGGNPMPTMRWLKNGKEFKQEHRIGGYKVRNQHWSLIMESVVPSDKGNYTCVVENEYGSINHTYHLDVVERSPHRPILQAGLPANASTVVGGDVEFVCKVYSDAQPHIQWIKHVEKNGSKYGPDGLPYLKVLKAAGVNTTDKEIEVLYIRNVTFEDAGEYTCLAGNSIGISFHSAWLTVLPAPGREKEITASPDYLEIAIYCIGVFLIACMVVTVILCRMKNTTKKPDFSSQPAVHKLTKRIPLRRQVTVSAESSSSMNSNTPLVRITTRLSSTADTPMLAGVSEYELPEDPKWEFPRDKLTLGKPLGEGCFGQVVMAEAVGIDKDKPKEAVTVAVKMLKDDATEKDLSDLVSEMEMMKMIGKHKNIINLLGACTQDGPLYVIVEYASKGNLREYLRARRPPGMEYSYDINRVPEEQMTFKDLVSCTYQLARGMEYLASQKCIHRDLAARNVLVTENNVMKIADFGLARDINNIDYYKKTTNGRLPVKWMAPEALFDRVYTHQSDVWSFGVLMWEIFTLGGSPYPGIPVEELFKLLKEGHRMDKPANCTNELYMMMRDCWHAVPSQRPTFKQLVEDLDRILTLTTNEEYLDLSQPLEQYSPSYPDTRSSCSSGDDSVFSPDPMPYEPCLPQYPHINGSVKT

| Structure (SMILES) | IC50 (FGFR2) [nM] | IC50 (SNU-16; [1]) [nM] | IC50 (SNU-16; SNU-16 cells) [nM] |
| --- | --- | --- | --- |
| C=C1C(=O)N(c2ccc(-c3c(-c4ccc(Oc5nccc(C)n5)cc4)c4c(N)ncnc4n3C)cc2)CC1(C)C [Example 1088] | 1000 to 100000 | 250 to 1000 |  |
| C=C(C)C(=O)Nc1ccc(-c2c(-c3ccc(Oc4nccc(C)n4)cc3)c3c(N)ncnc3n2C)c(Cl)c1F [Example 1089] | 1000 to 100000 | 1000 to 100000 |  |
| C=C(C)C(=O)Nc1cc(C)c(-c2c(-c3ccc(Oc4cccc(C)n4)c(F)c3)c3c(N)ncnc3n2C)cn1 [Example 1091] | 1000 to 100000 | 1000 to 100000 |  |
| CC1=C[C@@H](C)N(c2ccc(-c3c(-c4ccc(Oc5nccc(C)n5)cc4)c4c(N)ncnc4n3C)cc2)C1=O [Example 1114] | 250 to 1000 | ≤ 100 |  |
| C=C(C)C(=O)Nc1ccc(-c2c(C3=CC[C@@H](S(=O)(=O)N4CCCC4)CC3)c3c(N)ncnc3n2C)c(C)c1 [Example 1115] | 1000 to 100000 | 1000 to 100000 |  |
| C=C(C)C(=O)Nc1ccc(-c2c(C3=CC[C@H](S(=O)(=O)N4CCCC4)CC3)c3c(N)ncnc3n2C)c(C)c1 [Example 1116] | 100 to 250 | ≤ 100 |  |
| C#Cc1ncc(-c2c(-c3ccc(Oc4nccc(C)n4)cc3)c3c(N)ncnc3n2C)cn1 [Example 1117] | 100 to 250 |  | ≤ 100 |
| C#Cc1cc(C)c(-c2c(-c3ccc(Oc4nccc(C)n4)c(F)c3)c3c(N)ncnc3n2C)cn1 [Example 1119] | 1000 to 100000 |  | 250 to 1000 |
| C=C(C)C(=O)Nc1ccc(-c2c(-c3ccc(-c4nnc(C)o4)cc3)c3c(N)ncnc3n2C)cc1 [Example 1123] | 1000 to 100000 | 250 to 1000 |  |
| C=C(C)C(=O)Nc1ccc(-c2c(-c3ccc(-c4ccn(C)n4)nc3)c3c(N)ncnc3n2C)cc1 [Example 1124] | 1000 to 100000 | 250 to 1000 |  |
| C=C(C)C(=O)Nc1ccc(-c2c(-c3ccc(Oc4nccc(C)n4)cc3)c3c(C)ncnc3n2C)c(C)c1 [Example 1125] | 1000 to 100000 | 1000 to 100000 |  |
| C#Cc1cc(C)c(-c2[nH]c3ncnc(N)c3c2-c2ccc(Oc3nccc(C)n3)cc2)cn1 [Example 1130] | 250 to 1000 | 250 to 1000 |  |
| C=CC(=C)Nc1ccc(-c2c(-c3cnn(C)c3)c3c(N)ncnc3n2C)c(C)c1 [Example 1132] | 1000 to 100000 | 250 to 1000 |  |
| C=C1C(=O)N(c2ccc(-c3c(-c4ccc(Oc5nccc(C)n5)cc4)c4c(N)ncnc4n3C)cc2)C[C@@H]1C [Example 1133] | 100 to 250 | 100 to 250 |  |
| C=C1C(=O)N(c2ccc(-c3c(-c4ccc(Oc5nccc(C)n5)cc4)c4c(N)ncnc4n3C)cc2)C[C@H]1C [Example 1135] | 250 to 1000 | 100 to 250 |  |
| C#Cc1cc(C)c(-c2c(-c3ccc(C(=O)NC4CCC4)c(OC)c3)c3c(N)ncnc3n2C)cn1 [Example 1143] | 1000 to 100000 | 250 to 1000 |  |
| C#Cc1cc(C)c(-c2c(-c3cnn(C)c3)c3c(N)ncnc3n2C)cn1 [Example 1144] | 100 to 250 | ≤ 100 |  |
| C=C(C)C(=O)Nc1ccc(-c2c(-c3ccc(-c4noc(C)n4)cc3)c3c(N)ncnc3n2C)cc1 [Example 1145] | 1000 to 100000 | 1000 to 100000 |  |
| C=C(C)C(=O)Nc1ccc(-c2c(-c3ccc(-n4cc(C)cn4)nc3)c3c(N)ncnc3n2C(C)C)cc1 [Example 1151] | 100 to 250 | 250 to 1000 |  |
| C=CC(=O)Nc1ccc(-c2c(-c3c[nH]c4ccccc34)c3c(N)ncnc3n2C)cc1 [Example 1157] | 250 to 1000 | 250 to 1000 |  |
| C=C(C)C(=O)Nc1cc(-c2c(-c3ccc(Oc4nccc(C)n4)c(F)c3)c3c(N)ncnc3n2C)n(C)n1 [Example 1161] | < 100 | ≤ 100 |  |
| CC#Cc1ncc(-c2c(-c3ccc(Oc4nccc(C)n4)cc3)c3c(N)ncnc3n2C)c(C)n1 [Example 1162] | < 100 | ≤ 100 |  |
| C#Cc1cc(C)c(-c2c(-c3ccc(Oc4nccc(C)n4)c(F)c3)c3c(C)ncnc3n2C)cn1 [Example 1163] | < 100 | ≤ 100 |  |
| C#Cc1ncc(-c2c(-c3ccc(Oc4nccc(C)n4)cc3)c3c(N)ncnc3n2C)c(C)c1F [Example 1164] | < 100 | ≤ 100 |  |
| C=C(C)C(=O)Nc1cc(C)c(-c2c(-c3ccc(Oc4nccc(C)n4)cc3)c3c(N)ncnc3n2C)c(C)c1 [Example 1165] | < 100 | ≤ 100 |  |
| C#Cc1nc2ccc(-c3c(-c4ccc(Oc5nccc(C)n5)cc4)c4c(N)ncnc4n3C)cc2o1 [Example 1167] | < 100 | ≤ 100 |  |
| C#Cc1ccc(-c2c(-c3ccc(Oc4nccc(C)n4)c(F)c3)c3c(N)ncnc3n2C)c(C)n1 [Example 1168] | < 100 | 1000 to 100000 |  |

Next, values leading:

| IC50 (FGFR2) [nM] | IC50 (SNU-16; [1]) [nM] | IC50 (SNU-16; SNU-16 cells) [nM] | Structure (SMILES) |
| --- | --- | --- | --- |
| < 100 | ≤ 100 |  | C=C(C)C(=O)Nc1cnc(-c2c(-c3ccc(Oc4cccc(C)n4)c(F)c3)c3c(N)ncnc3n2C)c(F)c1 [Example 1086] |
| < 100 | ≤ 100 |  | C=C1CCCN(c2ccc(-c3c(-c4ccc(Oc5nccc(C)n5)cc4)c4c(N)ncnc4n3C)cc2)C1=O [Example 1087] |
| < 100 | ≤ 100 |  | CC1=CCCN(c2ccc(-c3c(-c4ccc(Oc5nccc(C)n5)cc4)c4c(N)ncnc4n3C)cc2)C1=O [Example 1090] |
| < 100 | ≤ 100 |  | C=CC(=O)Nc1ccc(-c2c(-c3ccc(Oc4nccc(C)n4)cc3)c3c(N)ncnc3n2C)c(C)c1 [Example 1092] |
| < 100 | ≤ 100 |  | C=C(C)C(=O)Nc1ccc(-c2c(-c3ccc(Oc4nccc(C)n4)c(F)c3)c3c(C)ncnc3n2C)c(Cl)c1 [Example 1093] |
| < 100 | ≤ 100 |  | C=CC(=O)Nc1ccc(-c2c(-c3ccc(Oc4nccc(C)n4)c(F)c3)c3c(C)ncnc3n2C)c(Cl)c1 [Example 1094] |
| < 100 | ≤ 100 |  | C=C(C)C(=O)Nc1cnc(-c2c(-c3ccc(Oc4cccc(C)n4)c(F)c3)c3c(N)ncnc3n2C)c(C)c1 [Example 1095] |
| < 100 | ≤ 100 |  | C=C1CCN(c2ccc(-c3c(-c4ccc(Oc5nccc(C)n5)cc4)c4c(N)ncnc4n3C)c(C)c2)C1=O [Example 1096] |
| < 100 | ≤ 100 |  | C=C(C)C(=O)Nc1cc(C)c(-c2c(-c3ccc(Oc4nccc(C)n4)cc3)c3c(N)ncnc3n2C)c(F)c1 [Example 1097] |
| < 100 | ≤ 100 |  | C=CC(=O)Nc1cc(-c2c(-c3ccc(Oc4cccc(C)n4)cc3)c3c(N)ncnc3n2C)n(C)n1 [Example 1098] |
| < 100 | ≤ 100 |  | C=C(C)C(=O)Nc1ccc(-c2c(-c3ccc(Oc4cccc(C)n4)c(F)c3)c3c(N)ncnc3n2C)c(C)n1 [Example 1103] |
| < 100 | ≤ 100 |  | C=CC(=O)Nc1ccc(-c2c(-c3ccc(Oc4nccc(C)n4)cc3)c3c(C)ncnc3n2C)c(C)c1 [Example 1104] |
| < 100 | ≤ 100 |  | C=CC(=O)Nc1ccc(-c2c(-c3ccc(Oc4nccc(C)n4)c(F)c3)c3c(C)ncnc3n2C)c(C)c1 [Example 1105] |
| < 100 | ≤ 100 |  | C=CC(=O)Nc1cc(-c2c(-c3ccc(Oc4nccc(C)n4)cc3)c3c(N)ncnc3n2C)n(C)n1 [Example 1108] |
| < 100 | ≤ 100 |  | C=C1CN(c2ccc(-c3c(-c4ccc(Oc5nccc(C)n5)cc4)c4c(N)ncnc4n3C)cc2)C1=O [Example 1109] |
| < 100 | ≤ 100 |  | C=C1CCN(c2ccc(-c3c(-c4ccc(Oc5nccc(C)n5)c(F)c4)c4c(N)ncnc4n3C)cc2)C1=O [Example 1110] |
| < 100 | ≤ 100 |  | C#Cc1cc(C)c(-c2c(C3=CC[C@H](C(=O)N4CCCC4)CC3)c3c(N)ncnc3n2C)cn1 [Example 1111] |

| IC50 (FGFR2) [nM] | IC50 (SNU-16; [1]) [nM] | IC50 (SNU-16; SNU-16 cells) [nM] | Structure (SMILES) |
| --- | --- | --- | --- |
| < 100 | ≤ 100 |  | C=CC(=O)Nc1ccc(-c2c(-c3ccc(Oc4nccc(C)n4)c(F)c3)c3c(N)ncnc3n2C)cc1 [Example 1112] |
| < 100 | ≤ 100 |  | C=C1C[C@@H](C)N(c2ccc(-c3c(-c4ccc(Oc5nccc(C)n5)cc4)c4c(N)ncnc4n3C)cc2)C1=O [Example 1113] |
| < 100 | ≤ 100 |  | CC1=C[C@H](C)N(c2ccc(-c3c(-c4ccc(Oc5nccc(C)n5)cc4)c4c(N)ncnc4n3C)cc2)C1=O [Example 1118] |
| < 100 | ≤ 100 |  | C=CC(=O)Nc1ccc(-c2c(-c3ccc(O)cc3)c3c(N)ncnc3n2C)cc1 [Example 1120] |
| < 100 | ≤ 100 |  | Cc1cccc(Oc2ccc(-c3c(-c4cccc(NC#N)c4)n(C)c4ncnc(N)c34)cc2)n1 [Example 1121] |
| < 100 | ≤ 100 |  | C=C(C)C(=O)Nc1ccc(-c2c(-c3ccc(Oc4nccc(C)n4)c(F)c3)c3c(C)ncnc3n2C)c(C)c1 [Example 1126] |
| < 100 | ≤ 100 |  | C=CC(=O)Nc1ccc(-c2c(-c3cn[nH]c3)c3c(N)ncnc3n2C)cc1 [Example 1128] |
| < 100 | ≤ 100 |  | C=C1C[C@H](C)N(c2ccc(-c3c(-c4ccc(Oc5nccc(C)n5)cc4)c4c(N)ncnc4n3C)cc2)C1=O [Example 1131] |
| < 100 | ≤ 100 |  | C#Cc1cc(C)c(-c2c(-c3ccc(Oc4nccc(C)n4)cc3)c3c(N)ncnc3n2C)nn1 [Example 1136] |
| < 100 | ≤ 100 |  | C=CC(=O)Nc1ccc(-c2c(-c3cc4ccccc4[nH]3)c3c(N)ncnc3n2C)cc1 [Example 1138] |
| < 100 | ≤ 100 |  | C=CC(=O)Nc1ccc(-c2c(-c3ccc4[nH]ccc4c3)c3c(N)ncnc3n2C)cc1 [Example 1148] |
| < 100 | 100 to 250 |  | C#Cc1ncc(-c2c(-c3ccc(Oc4nccc(C)n4)c(F)c3)c3c(N)ncnc3n2C)c(C)n1 [Example 1153] |
| < 100 | ≤ 100 |  | C=CC(=O)Nc1ccc(-c2c(-c3cc[nH]c3)c3c(N)ncnc3n2C)cc1 [Example 1154] |
| < 100 | ≤ 100 |  | C=C(C)C(=O)Nc1ccc(-c2c(-c3ccc(-c4ccnn4C)nc3)c3c(N)ncnc3n2C)cc1 [Example 1155] |
| < 100 | ≤ 100 |  | C=CC(=O)Nc1ccc(-c2c(-c3ccc(=O)[nH]c3)c3c(N)ncnc3n2C)cc1 [Example 1158] |
| < 100 | ≤ 100 |  | C#Cc1cc(C)c(-c2c(-c3ccc(OC(C)C)cc3)c3c(N)ncnc3n2C)cn1 [Example 1160] |
